The text below walks through data of paper PMC4633953, “FR171456 is a specific inhibitor of mammalian NSDHL and yeast Erg26p” (Nature Communications, 2015).

pIC50: −log10 of the molar value.

Test [1] addresses T1, Erg26p (Saccharomyces cerevisiae, UniProt P53199).
T1 sequence (P53199 1-349): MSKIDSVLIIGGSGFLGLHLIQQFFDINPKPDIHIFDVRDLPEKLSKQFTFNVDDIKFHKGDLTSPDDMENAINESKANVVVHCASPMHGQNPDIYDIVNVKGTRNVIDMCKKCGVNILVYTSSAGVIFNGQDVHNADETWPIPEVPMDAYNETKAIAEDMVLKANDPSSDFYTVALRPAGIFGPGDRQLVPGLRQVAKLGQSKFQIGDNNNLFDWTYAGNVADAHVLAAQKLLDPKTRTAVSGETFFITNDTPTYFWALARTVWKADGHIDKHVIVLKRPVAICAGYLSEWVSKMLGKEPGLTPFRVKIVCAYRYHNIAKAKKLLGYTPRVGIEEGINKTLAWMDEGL
Description: In vitro microsomal Erg26p activity assay (GC-MS).
Description: To test this hypothesis an in vitro microsomal Erg26p activity assay[30] was used. Erg26p activity was directly assessed in the presence of increasing concentrations of FR171456 (10 nM–0.1 mM) in the presence of 150 μM carboxysterol substrate (Fig. 1c) and the cofactor NAD^+ (0.5 mM) followed by GC-MS detection of the product 4α-methyl-cholest-8,24-dien-3-one.
Wild-type yeast (FL200) microsomes were prepared as follows. Yeast cells were disrupted by glass bead homogenization (0.45-mm diameter) in 100 mM phosphate buffer (pH 7.5) containing 1.5 mM reduced glutathione and 30 mM nicotinamide for 8 min at 0 °C[44]. The cell extract was obtained by centrifugation at 10,000 × g for 20 min. Microsomes were then isolated by centrifuging the cell extract supernatant at 100,000 × g for 90 min. The resulting microsomal pellet was resuspended in 100 mM phosphate buffer (pH 7.5) containing 3 mM reduced glutathione and 20% glycerol (v/v) using an Elvehjem–Potter homogenizer. Yeast microsomes (1.2 mg of protein) were incubated in the presence of 4α-carboxy-4β-methyl-cholest-8,24-dien-3β-ol (50–300 mM) and NAD^+ (0.5 mM) for 35–45 min at 30 °C. After addition of coprostanone (2–6 μg) as internal standard, the reactions were extracted as described previously[12]. The extract was analysed by TLC on silica gel and eluted twice with CH2Cl2. The fraction migrating between a standard of 4-desmethyl-sterone (RF= 0.50) and 4,4-dimethyl-sterone (RF=0.70) was eluted and analysed using a GC-MS spectrometer (Agilent 5973 N).
In the case of inhibition assays, microsomes were incubated for 35–45 min at 30 °C in the presence of 4α-carboxy-4β-methyl-cholest-8,24-dien-3β-ol (50–300 mM) and a range of inhibitor concentration (0.01–100 μM) from which a dose–response curve was obtained allowing the corresponding I50 values to be determined.
The GC-MS spectrometer (Agilent 5973 N) was equipped with an ‘on column' injector and a capillary column (30 × 0.25 mm) coated with DB5 (H2 flow rate of 2 ml min^−1). The temperature program included a 30 °C min^−1 increase from 60 °C to 240 °C, and followed by a 2 °C/min increase from 240 °C to 280 °C. The areas of the GC peaks of coprostanone (tR=1.000) and of the produced 4α-methyl-cholest-8,24-dien-3-one (tR=1.139), corrected from endogenous component of the same tR (1.139) determined in the blank (boiled microsomes), allowed the rate of transformation of 4α-carboxy-4β-methyl-cholest-8,24-dien-3β-ol to be measured. Under these conditions, the estimated limit of detection of the 3βHSD/D activity was 0.1 nmol h^−1 mg^−1.

Test [2] has as its system S. cerevisiae (BY4743 strain). Description: Yeast growth inhibition dose response (OD600). Type of test: cell-based. As to conditions: Saccharomyces cerevisiae, 14 h, BY4743, 14 h, 30 °C, YPD, 2% DMSO. The method, then:
Figure 2 FR171456 targets Erg26p in S. cerevisiae. (a) Structures of FR171456, and two related triterpenes (compound 1, compound 2). (b) Duplicate 12-point Dose response curves of wild-type diploid yeast with three compounds in a. Strain BY4743 was grown for 14 h at 30 °C in YPD media with 2% DMSO containing a dilution series of FR171456: black; Compound-1: light grey circles, and Compound-2: light grey squares. Y axis: OD600 absorbance indicating yeast growth, x axis: compound concentrations (log10 μM). (c) Haploinsufficiency and homozygous profiling (HIP resp. HOP) for FR171456 at 4 μM. Each mutant strain in the pool is represented by a circle (non-essential genes) or a square (essential genes). The, y axis represents strain sensitivity and x axis represents z-score (specificity). In (d), the z-scores of the HIP pool strains (y axis) plotted against increasing doses of FR171456 (x axis; μM). (e) Relative compound sensitivity profile of the erg26Δ/ERG26 strain across HIP experiments performed with 1,800 diverse small molecule yeast proliferation inhibitors. TEXT PRINTED IN THE PICTURE: (a) FR171456: MW 516.68; S.c. […] IC50 >200 μM | (a) Compound 2: MW 532.68; S.c. IC50 >200 μM

Test [3] relates to ergosterol pathway intermediates in C. albicans SC5314. Description: Focused metabolomics: 13C-labelled ergosterol pathway intermediates in C. albicans. Type of test: cell-based. As to conditions: increasing doses. The method, then: For ^13C- labelling studies, the wild type C. albicans strain SC5314 was obtained from ATCC (Manassas, VA) and was cultured at 30 °C in YPD broth (1% yeast extract, 2% peptone, 2% dextrose) or Synthetic Medium (3% glycerol, 0.1% glucose, 65 mM NH4Cl, 1.7 mM NaCl, 7 mM KH2PO4, 1 mM CaCl2, 0.5 mM MgSO4).
Approximately 1.25 × 10^8 C. albicans cells from a saturated YPD culture were inoculated into 100 ml Synthetic Medium (SM) and grown at 30 °C to an OD of 1.0. Cells were washed once in modified SM (25 mM KPO4 pH 7.0, with glucose omitted) and suspended to 5 OD600 units per ml in modified SM.
Labelling reactions were performed in 12-ml glass tubes with PTFE-lined caps (Corning) and containing 1 ml cell suspension (∼6 × 10^7 cells), 10 μl DMSO or 10 μl compound dissolved in DMSO, 12 μl 1M D-Glucose (U^-13C6 glucose), and 10 μl 1 M (1,2^-13C2) sodium acetate (Cambridge Isotope Laboratories, Inc). Before LC-MS analysis, dried lipid extracts were dissolved in 500 μl methanol, vortexed and sonicated for 10 min.
Squalene, ergosterol, lanosterol and zymosterol were quantified using the tandem mass spectrometer API4000 triple quadrupole (AB Sciex) with atmospheric pressure chemical ionization (APCI), interfaced to an Agilent LC.
Cells (∼6 × 10^7) and compounds were preincubated 15 min at 30 °C (without shaking) before the addition of labelled substrates. Labelling was performed at 30 °C with shaking for 4 h. Reactions were stopped by adding 1 ml 30% KOH, 1 ml 100% ethanol, and 0.2 ml 2% pyrogallol. Samples were mixed and then heated at 80 °C for 30 min, then cooled to room temperature. Non-saponifiable lipids were extracted two times in petroleum ether, washed with water, dried under nitrogen gas and stored at −80 °C.
For compound calibration, 2 μM solutions in 0.1% formic acid were directly infused into the mass spectrometer. Ergosterol, lanosterol and zymosterol undergo dehydration and their molecular species are detected as [M+H-H2O]^+ while squalene is detected as [M+H]^+. Supplementary Table 4 lists the multiple reaction monitoring parameters of the sterols and squalene, as well as the ^13C incorporated metabolites. The mass spectrometer source parameters are the following: CUR=40, GS1=60, NC=4.5. TEM=450 CAD=4. A mobile phase of 0.2% formic acid in methanol and isocratic run at 0.4 ml min^−1 was employed to separate the metabolites on a Waters XBridge C18 3.5 μm 2.1 × 50 mm column. The run time was 4.5 min.

Test [4] concerns the target T1, Erg26p. The following applies: wild-type yeast Erg26p ref 32; cited from earlier work.
Another test deals with F. solani. Nature of the test: Combination with clinical antifungal agents (Loewe synergy, growth by OD530). It counts as cell-based. The following applies: in presence of FR171456 6.67 and 20 μM.

Description for F. solani: incubated for 24 h in increasing combined doses of FR171456 and Amphotericin B, and growth
assessed by OD530. (a) Normalised growth rates plotted as % inhibition of growth. (b) Loewe excess
heat map showing difference between predicted scores based upon the addition of each agent
alone and the actual values detected plotted as difference in % of inhibition. (c) Loewe isobologram
- a comparison of the doses of each compound needed to achieve 50% inhibition of proliferation.

As to `C=C(CCC(C)C1CCC2C1(C)CC(O)C13CC14C(=O)CC(O)C(C)(C(=O)NCc1ccccc1)C4C(=O)CC23O)C(C)C` [Compound 1, (1R,2aR,3R,5aR,5bS,7aR,8S,9S,11aS,12aR)-N-benzyl-1,5b,9-trihydroxy-2a,8-dimethyl-3-((R)-6-methyl-5-methyleneheptan-2-yl)-7,11-dioxohexadecahydrocyclopenta[a]cyclopropa[e]phenanthrene-8-carboxamide], at Erg26p [1], the pIC50 (commonly −log10 of the IC50, conventionally taken in molar units) is under 3.30 and the “decrease of inhibition relative to FR171456” value is over 300 fold. For the same molecule, the pIC50 in test [2] is under 3.70.
Regarding `OC(Cn1cncn1)(Cn1cncn1)c1ccc(F)cc1F` [fluconazole, reference compound], in test [3], the “effect on 13C-labelled ergosterol” value is given as “decrease”, the “effect on 13C-labelled lanosterol” value was “accumulation” and the “effect on 13C-labelled zymosterol” value was “decrease”.
For the molecule `CC(C)=CCC[C@@H](C)[C@H]1CC[C@H]2C3=C(CC[C@]12C)[C@@]1(C)CC[C@H](O)[C@@](C)(C(=O)O)C1CC3` (stereo partly drawn) [carboxysterol substrate, 4α-carboxy-4β-methyl-cholest-8,24-dien-3β-ol], the Km (in general, the concentration of substrate that gives half-maximal velocity) at Erg26p [4] was 550 µM.
For the molecule `C[C@@H]1[C@H](O)[C@@H](C)/C=C/C=C/C=C/C=C/C=C/C=C/C=C/[C@H](O[C@@H]2O[C@H](C)[C@@H](O)[C@H](N)[C@@H]2O)C[C@@H]2O[C@](O)(C[C@@H](O)C[C@@H](O)[C@H](O)CC[C@@H](O)C[C@@H](O)CC(=O)O[C@H]1C)C[C@H](O)[C@H]2C(=O)O` [Amphotericin B, reference compound], the “amount of Amphotericin B required for maximal inhibition” value in the test with F. solani is listed as “halved”.
As to `C=C(CCC(C)C1CCC2C1(C)CC(O)C13CC14C(=O)CC(O)C(C)(C(=O)O)C4C(=O)CC23O)C(C)CO` [Compound 2, (1R,2aR,3R,5aR,5bS,7aR,8S,9S,11aS,12aR)-1,5b,9-trihydroxy-3-((2R)-7-hydroxy-6-methyl-5-methyleneheptan-2-yl)-2a,8-dimethyl-7,11-dioxohexadecahydrocyclopenta[a]cyclopropa[e]phenanthrene-8-carboxylic acid], the pIC50 in test [2] is under 3.70.
